One test relates to MCT rats. The note with it: cited from earlier work.
A further test concerns adult cardiomyocytes. Briefly: IL6 incubation of isolated adult cardiomyocytes (microtubules, JPH2, t-tubules). Format: cell-based. As to conditions: IL6 10 ng/mL. As to the method: To examine the direct effects of IL6 on the MT-JPH2 pathway, adult cardiomyocytes were incubated with IL6 (10 ng/mL) and then it was quantified how MT, JPH2, and t-tubules were affected. IL6 increased MT density as determined by quantitative immunofluorescence (16.0±0.9 vs 20.4±0.7 fluorescence intensity/μm^2, p<0.001) (FIGS. 4A and 4B). The altered MT structure disrupted JPH2 localization marked by loss of t-tubule enrichment (TT score: 65.6±2.5 vs 59.6±1.6, p=0.04) (FIGS. 4C and 4D). Finally, IL6 caused t-tubule remodeling with loss of t-tubule regularity (TT score: 59.9±1.9 vs 51.9±1.5, p=0.003) (FIGS. 4E and 4F).
Determination of how IL6 alters the microtubule-JPH2-t-tubule pathway in isolated cardiomyocytes: Right ventricular cardiomyocytes are isolated using the Langendorf retrograde perfusion protocol. Cardiomyocytes are incubated for 24, 48, and 72 hours with either phosphate buffered saline (PBS), IL6 (10 ng/mL), IL6 (10 ng/mL) plus the STAT3 inhibitor Stattic (2 μM), or IL6 (10 ng/mL) plus colchicine (10 μM). Then Western blot analysis and confocal microscopy is used to examine microtubule density, JPH2 protein levels and localization, and t-tubule morphology. JPH2 localization patterns and t-tubule remodeling are quantified using the TTPower plug-in in FIJI.

In a further test the target is T1, IL-6 receptor (Homo sapiens, UniProt P08887).
T1 construct: host or cells: PAH patients (clinical trial run by others)
T1 sequence (P08887 20-468): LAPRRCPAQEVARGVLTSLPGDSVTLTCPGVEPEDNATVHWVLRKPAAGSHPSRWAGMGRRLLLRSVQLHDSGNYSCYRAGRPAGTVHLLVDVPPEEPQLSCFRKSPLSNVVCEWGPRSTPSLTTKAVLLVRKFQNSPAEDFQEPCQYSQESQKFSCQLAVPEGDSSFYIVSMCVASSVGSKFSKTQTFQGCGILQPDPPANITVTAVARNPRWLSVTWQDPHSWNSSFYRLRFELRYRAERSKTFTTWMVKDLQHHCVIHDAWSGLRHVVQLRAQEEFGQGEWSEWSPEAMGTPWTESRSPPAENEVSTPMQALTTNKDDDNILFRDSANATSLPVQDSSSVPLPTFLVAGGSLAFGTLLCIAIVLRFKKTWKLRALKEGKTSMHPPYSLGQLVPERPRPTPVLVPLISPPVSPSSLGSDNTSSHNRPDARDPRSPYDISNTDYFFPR
The note with it: PAH patients, vs control group; cited from earlier work.

The next test deals with H9c2 cardiomyocytes. Put plainly: Seahorse mitochondrial respiration in H9c2 cardiomyocytes. Format: cell-based, rat. As to conditions: 20 μM paclitaxel overnight. The protocol: Cell culture and mitochondrial respiration measurements: H9c2 (ATCC CRL-1446) rat cardiomyocytes were maintained in Dulbecco's Modified Eagle's Medium (DMEM) (Thermo Scientific) supplemented with 10% fetal bovine serum (FBS) (Foundation, Gemini Bio-Products, West Sacramento, Calif.), 100 U/ml penicillin, and 100 μg/ml streptomycin (Invitrogen, Carlsbad, Calif.) at 37° C. with 5% CO2. Cells were passaged with Accutase (BioLegend, San Diego, Calif.). Differentiation was induced by changing to differentiation medium which had 2% horse serum (Equitech-Bio, Kerrville, Tex.), in place of FBS. Ten thousand cells were plated per Agilent Seahorse XFp dish pretreated with 0.1% gelatin (Sigma-Aldrich, St. Louis, Mo.). Five days after initial plating, cells were treated with differentiation media supplemented with 20 μM paclitaxel in DMSO (Sigma-Aldrich) overnight. The following day and one hour before the assay, cell media was changed to Seahorse DMEM assay media and supplemented with 5 mM glucose, 4 mM glutamine, and 1 mM pyruvate (Agilent, Santa Clara, Calif.). Oxygen consumption rate (OCR) was measured with an Agilent Seahorse XFp Extracellular Flux analyzer using the Agilent XFp Cell Mito Stress Test Kit with oligomycin A (final concentration after injection 1.5 μM), carbonyl cyanide 4-(trifluoromethoxy)phenylhydrazone (FCCP at 2 μM), and […] rotenone/actimycin. After the assay, cells were lysed in 50 μl of 1× Laemmli sample buffer supplemented with HALT protease and phosphatase inhibitor cocktail (Thermo Fisher). Cell lysates were electrophoresed on SDS-PAGE gels and stained with CBB per above to estimate total protein per sample. Raw Seahorse measurements were normalized to total protein and analyzed using Agilent Wave software.

[1] abbreviates: therapy started one week after MCT.

“Also recorded” adds a separate entry of the source. Like-named read-outs stand apart in the source and are kept apart here.

Take `C[C@]12CCC(OC=O)CC1CC[C@@H]1[C@@H]2CC[C@]2(C)C(C34C=CC(=O)OC3O4)CC3O[C@]312` (stereo partly shown) [20S,21-epoxy-resibufogenin-3-formate]: in the test with MCT rats (setting [1]), the mPAP result is “lowered mPAP” and the pulmonary vascular remodeling entry is “attenuated adverse pulmonary vascular remodeling”.
With `CCCc1nn(C)c2c(=O)[nH]c(-c3cc(S(=O)(=O)N4CCN(C)CC4)ccc3OCC)nc12` [sildenafil], in the test on MCT rats (RV), the JPH2 expression result was “restores RV JPH2 expression”; the t-tubule architecture result is “restores RV JPH2 expression and t-tubule architecture”. Also, the “RV function / contractility” value in the test on MCT rats is “improves RV contractility”.
As to “IL6: inflammatory cytokine that binds to the cell membrane proteins IL6 receptor and GP130”, in the test with adult cardiomyocytes, the “JPH2 t-tubule enrichment (TT score)” value is listed as 59.6±1.6, the “MT density by quantitative immunofluorescence” value is reported as 20.4±0.7 fluorescence intensity/μm^2 and the “t-tubule regularity (TT score)” value came out at 51.9±1.5.
Take “tocilizumab: a monoclonal antibody that antagonizes the IL-6 receptor”: in the test with IL-6 receptor, the PVR entry is “not different between the tocilizumab and control groups; also recorded: does not alter PVR”.
Take `COc1cc2c(c(OC)c1OC)-c1ccc(OC)c(=O)cc1[C@@H](NC(C)=O)CC2` [colchicine]: in the test on MCT rats (RV, listed as Colchicine), the JPH2 expression entry is listed as “increases JPH2 expression” and the t-tubule architecture entry is “corrects t-tubule architecture”. In the test with MCT rats (RV), the JPH2 expression entry is given as “increases JPH2 levels; also recorded: increases JPH2 expression”, the microtubule density entry is listed as “reduces microtubule density” and the t-tubule architecture result is listed as “combats pathological t-tubule remodeling”. In the test on MCT rats, the “RV function / contractility” value is “augments RV function” and the exercise capacity entry is given as “enhances exercise capacity”. In addition, the “RV function / contractility” value in the test on MCT rats (listed as Colchicine) was “improves RV function”.
For `CC(=O)O[C@H]1C(=O)[C@@]2(C)[C@H]([C@H](OC(=O)c3ccccc3)[C@]3(O)C[C@H](OC(=O)[C@H](O)[C@@H](NC(=O)c4ccccc4)c4ccccc4)C(C)=C1C3(C)C)[C@]1(OC(C)=O)CO[C@@H]1C[C@@H]2O` [Paclitaxel, paclitaxel], in the test with H9c2 cardiomyocytes, the ATP production entry is on record as “reduced”, the coupling efficiency result is listed as “reduced”, the maximal respiration result is given as “reduced” and the proton leak entry was “enhanced”. In addition, the spare capacity result with H9c2 cardiomyocytes is on record as “reduced”.

The values are drawn from US20220054485A1, “METHODS OF TREATING RIGHT VENTRICULAR FUNCTION IN PULMONARY HYPERTENSION” (REGENTS OF THE UNIVERSITY OF MINNESOTA, priority 2020, published 2022).
